{"source": "paper PMC10036820", "about": "“In vivo evaluation of integrin αvβ6-targeting peptide in NSCLC and brain metastasis” (Frontiers in Oncology, 2023)", "origin": "cited, not measured here", "key": {"[1]": {"test_system": "HNSCC primary tumor and lymph node metastases", "design": "method as in PMID 29674419", "conditions": "PET/CT, patient with HNSCC; ref [16]"}, "[2]": {"test_system": "integrin αvβ6", "design": "method as in PMID 29674419", "conditions": "comparison in words; ref [16]"}}}
{"sequence": "GRGDLGRL [SFLAP3, SFTI-based peptide containing latency-associated peptide (GRGDLGRL)]", "values": [{"measurement": "SUVmax, lymph node metastases", "setting": "[1]", "value": 4.1}, {"measurement": "SUVmax, primary tumor", "setting": "[1]", "value": 5.1}, {"measurement": "affinity to integrin αvβ6 relative to SFITGv6", "setting": "[2]", "value": "better affinity"}]}
